Laboratory results as given in patent US8741836B2, “Polypeptides” (Novo Nordisk A/S, priority 2011, dated 2014).
Starred links: 1 amine or outer side, 2 acyl side, 3 side chain; linkers in the order of their positions; H or OH if unused. Positions of bridges follow the written chain, without caps; N, C: chain ends. Non-standard residues stand in square brackets, D forms with d. Residues, ends and D or L forms follow the SMILES beside them. Groups on a side chain read outwards from the residue. *: point of attachment. C20 diacid = O=C(O)CCCCCCCCCCCCCCCCCCC(=O)*; C18 diacid = O=C(O)CCCCCCCCCCCCCCCCC(=O)*; γGlu = O=C(O)[C@H](CCC(=O)[*:2])N[*:1]; AEEA = NCCOCCOCC(=O)O

Assay: Assay (III) ThT fibrillation assay for physical stability
Assay type: physicochemical
Conditions: for ThT pH 4.0 lag time: pH 4.0, ThT fibrillation assay
Source text: Assay (III)—ThT Fibrillation Assays for the Assessment of Physical Stability of Protein formulations Low physical stability of a polypeptide may lead to amyloid fibril formation, which is observed as well-ordered, thread-like macromolecular structures in the sample eventually resulting in gel formation. This has traditionally been measured by visual inspection of the sample. However, that kind of measurement is very subjective and depending on the observer. Therefore, the application of a small molecule indicator probe is much more advantageous. Thioflavin T (ThT) is such a probe and has a distinct fluorescence signature when binding to fibrils [Naiki et al. (1989) Anal. Biochem. 177, 244-249; LeVine (1999) Methods. Enzymol. […], 274-284]. The time course for fibril formation can be described by a sigmoidal curve with the following expression [Nielsen et al. (2001) Biochemistry 40, 6036-6046]: [formula] Here, F is the ThT fluorescence at the time t. The constant t0 is the time needed to reach 50% of maximum fluorescence. […] Few of those intermediates nucleate to form a template onto which further intermediates may assembly and the fibrillation proceeds. The lag-time corresponds to the interval in which the critical mass of nucleus is built up and the apparent rate constant is the rate with which the fibril itself is formed. Sample Preparation Samples were prepared freshly before each assay. Each sample composition is described in each example. The pH of the sample was adjusted to the desired value using appropriate amounts of concentrated NaOH and HClO4 or HCl. Thioflavin T was added to the samples from a stock solution in H2O to a final concentration of 1 μM. Sample aliquots of 200 μl were placed in a 96 well microtiter plate (Packard OptiPlate™-96, white polystyrene). Usually, four or eight replica of each sample (corresponding to one test condition) were placed in one column of wells. The plate was sealed with Scotch Pad (Qiagen). Incubation and Fluorescence Measurement Incubation at given temperature, shaking and measurement of the ThT fluorescence emission were done in a Fluoroskan Ascent FL fluorescence platereader or Varioskan platereader (Thermo Labsystems). The temperature was adjusted to 37° C. The orbital shaking was adjusted to 960 rpm with an amplitude of 1 mm in all the presented data. Fluorescence measurement was done using excitation through a 444 nm filter and measurement of emission through a 485 nm filter. Each run was initiated by incubating the plate at the assay temperature for 10 min. The plate was measured every 20 minutes for a desired period of time. Between each measurement, the plate was shaken and heated as described. Data Handling The measurement points were saved in Microsoft Excel format for further processing and curve drawing and fitting was performed using GraphPad Prism. The background emission from ThT in the absence of fibrils was negligible. The data points are typically a mean of four or eight samples and shown with standard deviation error bars. Only data obtained in the same experiment (i.e. samples on the same plate) are presented in the same graph ensuring a relative measure of fibrillation between experiments. The data set may be fitted to Eq. (1). However, since full sigmodial curves in this case are not always achieved during the measurement time, the degree of fibrillation is expressed as ThT fluorescence tabulated as the mean of the samples and shown with the standard deviation at various time points. Measurement of Initial and Final Concentrations The polypeptide concentration in each of the tested formulations were measured both before application in the ThT fibrillation assay (“Initial”) and after completion of the ThT fibrillation (“After ThT assay”). Concentrations were determined by reverse HPLC methods using a pramlintide standard as a reference. Before measurement after completion 150 μl was collected from each of the replica and transferred to an Eppendorf tube. […]

Row | SMILES | ThT pH 4.0 lag time [h] | ThT pH 4.0 lag time (physical stability in fibrillogenesis assay) [h]
1 | CC[C@H](C)[C@H](NC(=O)[C@@H]1CCCN1C(=O)CNC(=O)[C@H](Cc1ccccc1)NC(=O)[C@H](CC(N)=O)NC(=O)[C@H](CC(N)=O)NC(=O)[C@H](CO)NC(=O)[C@H](CO)NC(=O)[C@H](Cc1c[nH]cn1)NC(=O)[C@H](Cc1c[nH]cn1)NC(=O)[C@H](CC(C)C)NC(=O)[C@H](Cc1ccccc1)NC(=O)[C@H](CCC(=O)O)NC(=O)[C@H](C)NC(=O)[C@H](CC(C)C)NC(=O)[C@H](CCCNC(=N)N)NC(=O)[C@H](CCC(N)=O)NC(=O)[C@@H](NC(=O)[C@H](C)NC(=O)[C@@H]1CSSC[C@H](NC(=O)[C@H](CCCCN)NC(=O)CC[C@H](NC(=O)CCCCCCCCCCCCCCCCCCC(=O)O)C(=O)O)C(=O)N[C@@H](CC(N)=O)C(=O)N[C@@H]([C@@H](C)O)C(=O)N[C@@H](C)C(=O)N[C@@H]([C@@H](C)O)C(=O)N1)[C@@H](C)O)C(=O)N[C@@H](CC(C)C)C(=O)N1CCC[C@H]1C(=O)N1CCC[C@H]1C(=O)N[C@H](C(=O)N[C@@H](CC(N)=O)C(=O)N[C@H](C(=O)NCC(=O)N[C@@H](Cc1c[nH]cn1)C(=O)N[C@@H](CC(N)=O)C(=O)N[C@H](C(=O)N[C@@H](Cc1ccc(O)cc1)C(N)=O)[C@@H](C)O)C(C)C)[C@@H](C)O [Example 115, N-alpha-[(S)-4-Carboxy-4-(19-carboxynonadecanoylamino)butyryl]-[Glu14,His17,His34]-pramlintide] ({C20 diacid-γGlu}-KCNTATCATQRLAEFLHHSSNNFGPILPPTNVGHNTY-NH2; disulfide 2-7 (inferred)) | >45 | 
2 | CC[C@H](C)[C@H](NC(=O)[C@@H]1CCCN1C(=O)CNC(=O)[C@H](Cc1ccccc1)NC(=O)[C@H](CC(N)=O)NC(=O)[C@H](CO)NC(=O)[C@H](CO)NC(=O)[C@H](CO)NC(=O)[C@H](Cc1c[nH]cn1)NC(=O)[C@H](CCCCNC(=O)COCCOCCNC(=O)COCCOCCNC(=O)CC[C@H](NC(=O)CCCCCCCCCCCCCCCCC(=O)O)C(=O)O)NC(=O)[C@H](CC(C)C)NC(=O)[C@H](Cc1ccccc1)NC(=O)[C@H](CCC(=O)O)NC(=O)[C@H](C)NC(=O)[C@H](CC(C)C)NC(=O)[C@H](CCCNC(=N)N)NC(=O)[C@H](CCC(N)=O)NC(=O)[C@@H](NC(=O)[C@H](C)NC(=O)[C@@H]1CSSC[C@H](NC(=O)[C@@H](N)CCCCN)C(=O)N[C@@H](CC(N)=O)C(=O)N[C@@H]([C@@H](C)O)C(=O)N[C@@H](C)C(=O)N[C@@H]([C@@H](C)O)C(=O)N1)[C@@H](C)O)C(=O)N[C@@H](CC(C)C)C(=O)N1CCC[C@H]1C(=O)N1CCC[C@H]1C(=O)N[C@H](C(=O)N[C@@H](CC(N)=O)C(=O)N[C@H](C(=O)NCC(=O)N[C@@H](CO)C(=O)N[C@@H](CCC(=O)O)C(=O)N[C@H](C(=O)N[C@@H](Cc1ccc(O)cc1)C(N)=O)[C@@H](C)O)C(C)C)[C@@H](C)O [Example 83, N-epsilon17-[2-(2-{2-[2-(2-{2-[(S)-4-Carboxy-4-(17-carboxyheptadecanoylamino)butyrylamino]ethoxy}ethoxy)acetylamino]ethoxy}ethoxy)acetyl]-[Glu14,Lys17,Ser21,Glu35]-pramlintide] (H-KCNTATCATQRLAEFLK([AEEA-AEEA-γGlu-C18 diacid])HSSSNFGPILPPTNVGSETY-NH2; disulfide 2-7 (inferred); N-terminus assumed) | >45 | >45
3 | CC[C@H](C)[C@H](NC(=O)[C@@H]1CCCN1C(=O)CNC(=O)[C@H](Cc1ccccc1)NC(=O)[C@H](CC(N)=O)NC(=O)[C@H](CC(N)=O)NC(=O)[C@H](CO)NC(=O)[C@H](CO)NC(=O)[C@H](Cc1c[nH]cn1)NC(=O)[C@H](CCCNC(=N)N)NC(=O)[C@H](CC(C)C)NC(=O)[C@H](Cc1ccccc1)NC(=O)[C@H](CCC(=O)O)NC(=O)[C@H](C)NC(=O)[C@H](CC(C)C)NC(=O)[C@H](CCCNC(=N)N)NC(=O)[C@H](CCC(N)=O)NC(=O)[C@@H](NC(=O)[C@H](C)NC(=O)[C@@H]1CSSC[C@H](NC(=O)[C@H](CCCCN)NC(=O)CC[C@H](NC(=O)CCCCCCCCCCCCCCCCCCC(=O)O)C(=O)O)C(=O)N[C@@H](CC(N)=O)C(=O)N[C@@H]([C@@H](C)O)C(=O)N[C@@H](C)C(=O)N[C@@H]([C@@H](C)O)C(=O)N1)[C@@H](C)O)C(=O)N[C@@H](CC(C)C)C(=O)N1CCC[C@H]1C(=O)N1CCC[C@H]1C(=O)N[C@H](C(=O)N[C@@H](CC(N)=O)C(=O)N[C@H](C(=O)NCC(=O)N[C@@H](CO)C(=O)N[C@@H](Cc1cnc[nH]1)C(=O)N[C@H](C(=O)N[C@@H](Cc1ccc(O)cc1)C(N)=O)[C@@H](C)O)C(C)C)[C@@H](C)O [Example 57, N-alpha-[(S)-4-Carboxy-4-(19-carboxynonadecanoylamino)butyryl]-[Glu14,Arg17,His35]-pramlintide] ({C20 diacid-γGlu}-KCNTATCATQRLAEFLRHSSNNFGPILPPTNVGSHTY-NH2; disulfide 2-7) |  | >45
4 | CC[C@H](C)[C@H](NC(=O)[C@@H]1CCCN1C(=O)CNC(=O)[C@H](Cc1ccccc1)NC(=O)[C@H](CC(N)=O)NC(=O)[C@H](C)NC(=O)[C@H](CO)NC(=O)[C@H](CO)NC(=O)[C@H](CCCNC(=N)N)NC(=O)[C@H](Cc1cnc[nH]1)NC(=O)[C@H](CC(C)C)NC(=O)[C@H](Cc1ccccc1)NC(=O)[C@H](CCC(=O)O)NC(=O)[C@H](C)NC(=O)[C@H](CC(C)C)NC(=O)[C@H](CCCNC(=N)N)NC(=O)[C@H](CCC(N)=O)NC(=O)[C@@H](NC(=O)[C@H](C)NC(=O)[C@@H]1CSSC[C@H](NC(=O)[C@H](CCCCN)NC(=O)[C@@H](CCCNC(=N)N)NC(=O)[C@@H](CCCNC(=N)N)NC(=O)COCCOCCNC(=O)COCCOCCNC(=O)CC[C@H](NC(=O)CCCCCCCCCCCCCCCCCCC(=O)O)C(=O)O)C(=O)N[C@@H](CC(N)=O)C(=O)N[C@@H]([C@@H](C)O)C(=O)N[C@@H](C)C(=O)N[C@@H]([C@@H](C)O)C(=O)N1)[C@@H](C)O)C(=O)N[C@@H](CC(C)C)C(=O)N1CCC[C@H]1C(=O)N1CCC[C@H]1C(=O)N[C@H](C(=O)N[C@@H](CC(N)=O)C(=O)N[C@H](C(=O)NCC(=O)N[C@@H](CO)C(=O)N[C@@H](CO)C(=O)N[C@H](C(=O)N[C@@H](Cc1ccc(O)cc1)C(N)=O)[C@@H](C)O)C(C)C)[C@@H](C)O [Example 38, N-alpha-[2-(2-{2-[2-(2-{2-[(S)-4-Carboxy-4-(19-carboxyheptadecanoylamino)butyrylamino]ethoxy}ethoxy)acetylamino]ethoxy}ethoxy)acetyl]-D-Arg-D-Arg-[Glu14,His17,Arg18,Ala21,Ser35]-pramlintide] ({C20 diacid-γGlu-AEEA-AEEA}-[dR][dR]KCNTATCATQRLAEFLHRSSANFGPILPPTNVGSSTY-NH2; disulfide 4-9) |  | >45
